Results: patent publication US9695155B2, “Herbicidal substituted pyrimidinyloxy benzene compounds” (E. I. DU PONT DE NEMOURS AND COMPANY, priority 2013, dated 2017)

Key:
oilseed rape = assay: Test C preemergence; type: in vivo, Brassica napus; conditions: for Oilseed Rape plant response rating: preemergence; for Plant response rating, Oilseed Rape: Preemergence, scale 0 to 100, 0 no effect, 100 complete control
Description: (§1) Seeds of plant species selected from blackgrass (Alopecurus myosuroides), Italian ryegrass (Lolium multiflorum), wheat, winter (winter wheat, Triticum aestivum), galium (catchweed bedstraw, Galium aparine), corn (Zea mays), large (Lg) crabgrass (Digitaria sanguinalis), giant foxtail (Setaria faberii), johnsongrass (Sorghum halepense), lambsquarters (Chenopodium album), morningglory (Ipomoea coccinea), yellow nutsedge (Cyperus esculentus), pigweed (Amaranthus retroflexus), ragweed (common ragweed, Ambrosia elatior), soybean (Glycine max), barnyardgrass (Echinochloa crus-galli), oilseed rape (Brassica napus), waterhemp (common waterhemp, Amaranthus rudis), kochia (Kochia scoparia), wild oat (Avena fatua), surinam grass (Brachiaria decumbens), foxtail, green (green foxtail, Setaria viridis), goosegrass (Eleusine indica), bromegrass, downy (downy bromegrass, Bromus tectorum), nightshade (eastern black nightshade, Solanum ptycanthum), cocklebur (common cocklebur, Xanthium strumarium), cupgrass, woolly (woolly cupgrass, Eriochloa villosa), bermudagrass (Cynodon dactylon), sunflower, (common oilseed sunflower, Helianthus annuus), Russian thistle (Salsola kali), and velvetleaf (Abutilon theophrasti) were planted into a blend of loam soil and sand and treated preemergence with test chemicals formulated in a non-phytotoxic solvent mixture which included a surfactant.
(§2) At the same time, plants selected from these crop and weed species and also barley, winter (winter barley, Hordeum vulgare), windgrass (Apera spica-venti), chickweed (common chickweed, Stellaria media), deadnettle (henbit deadnettle, Lamium amplexicaule), and canarygrass (littleseed canarygrass, Phalaris minor) were planted in pots containing Redi-Earth® planting medium (Scotts Company, 14111 Scottslawn Road, Marysville, Ohio 43041) comprising spaghnum peat moss, vermiculite, wetting agent and starter nutrients and treated with postemergence applications of test chemicals formulated in the same manner. Plants ranged in height from 2 to 18 cm (1- to 4-leaf stage) for postemergence treatments. Treated plants and controls were maintained in a greenhouse for 13 to 15 days, after which time all species were compared to controls and visually evaluated. Plant response ratings, summarized in Table C, are based on a scale of 0 to 100 where 0 is no effect and 100 is complete control. A dash (-) response means no test result.

barnyardgrass [1] = assay: Test C preemergence; type: in vivo, Echinochloa crus-galli; conditions: for Barnyardgrass plant response rating: preemergence; for Plant response rating, Barnyardgrass: Preemergence, scale 0 to 100, 0 no effect, 100 complete control
Description: as §1, §2

giant foxtail = assay: Test A preemergence; type: in vivo, Setaria faberii; conditions: for Foxtail, Giant plant response rating: 500 g ai/ha
Summary of the method: (§3)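 Visual injury scored 0–100 (100 = complete control) against untreated controls about 10 days after treatment in a greenhouse. Test chemicals, formulated with surfactant in non-phytotoxic solvent, were sprayed on soil preemergence or on 2-10 cm, one- to two-leaf plants postemergence.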

pigweed = assay: Test A postemergence; type: in vivo, Amaranthus retroflexus
Summary of the method: as §3

morningglory = assay: Test C preemergence; type: in vivo, Ipomoea coccinea; conditions: for Morningglory plant response rating: preemergence; for Plant response rating, Morningglory: Preemergence, scale 0 to 100, 0 no effect, 100 complete control
Summary of the method: (§4)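 Plants were kept under greenhouse conditions for 13–15 days following spray. Pre-emergent application went to soil (loam–sand), post-emergent to foliage at 1–4 leaves. Evaluation: visual, percent control against untreated checks.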

soybean = assay: Test C preemergence; type: in vivo, Glycine max; conditions: for Soybean plant response rating: preemergence; for Plant response rating, Soybean: Preemergence, scale 0 to 100, 0 no effect, 100 complete control
Summary of the method: as §4

galium = assay: Test C preemergence; type: in vivo, Galium aparine; conditions: for Galium plant response rating: preemergence; for Plant response rating, Galium: Preemergence, scale 0 to 100, 0 no effect, 100 complete control
Summary of the method: as §4

barnyardgrass [2] = assay: Test A postemergence; type: in vivo, Echinochloa crus-galli
Summary of the method: as §3

barnyardgrass [3] = assay: Test B flooded paddy test; type: in vivo, Echinochloa crus-galli; conditions: Flood, 250 g ai/ha; 0 to 100 scale where 0 is no effect and 100 is complete control
Summary of the method: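 Evaluation is visual, against untreated controls, 13 to 15 days after treatment. Before treatment, plants reached the 2-leaf stage; pots were then flooded 3 cm deep, compound was added to the water, and that level was maintained. Ratings run 0 to 100, with 100 meaning complete control.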

waterhemp = assay: Test C preemergence; type: in vivo, Amaranthus rudis; conditions: for Waterhemp plant response rating: preemergence; for Plant response rating, Waterhemp: Preemergence, scale 0 to 100, 0 no effect, 100 complete control
Summary of the method: as §4

[4] = 16 g ai/ha, scale 0 to 100 (0 no effect, 100 complete control)
[5] = 62 g ai/ha, scale 0 (no effect) to 100 (complete control)
[6] = 125 g ai/ha, scale 0 (no effect) to 100 (complete control)
[7] = 125 g ai/ha, 0 to 100 scale where 0 is no effect and 100 is complete control
[8] = 500 g ai/ha, 0 to 100 scale where 0 is no effect and 100 is complete control
[9] = 31 g ai/ha, 0 to 100 scale, 0 no effect, 100 complete control
[10] = 0 to 100 scale where 0 is no effect and 100 is complete control
[11] = 125 g ai/ha, 0 to 100 scale, 0 no effect, 100 complete control

Structure (SMILES)	Oilseed Rape plant response rating (oilseed rape; [4])	Oilseed Rape plant response rating (oilseed rape; [5])	Oilseed Rape plant response rating (oilseed rape; [6])	Barnyardgrass plant response rating (barnyardgrass [1]; [4])	Barnyardgrass plant response rating (barnyardgrass [1]; [5])	Barnyardgrass plant response rating (barnyardgrass [1]; [6])	Plant response rating, Barnyardgrass (barnyardgrass [1]; 31 g ai/ha)	Plant response rating, Foxtail, Giant (giant foxtail; [7])	Plant response rating, Pigweed (pigweed; [8])	Morningglory plant response rating (morningglory; [4])	Morningglory plant response rating (morningglory; [5])	Morningglory plant response rating (morningglory; [6])	Soybean plant response rating (soybean; [4])	Soybean plant response rating (soybean; [5])	Soybean plant response rating (soybean; [6])	Galium plant response rating (galium; [4])	Galium plant response rating (galium; [6])	Plant response rating, Barnyardgrass (barnyardgrass [3])	Waterhemp plant response rating (waterhemp; [4])	Waterhemp plant response rating (waterhemp; [6])	also measured
Fc1cnc(Oc2cccc(C(F)F)c2-n2cc(Br)cn2)nc1 [Compound 112]	65	95	100	0	30	90	5	100	100	5	65	75	10	50	95	55	95	0	90	100	Plant response rating, Oilseed Rape (oilseed rape; 31 g ai/ha): 90; Foxtail, Giant plant response rating (giant foxtail; 0 to 100 scale, 0 no effect, 100 complete control, approx. 10 days): 100; Plant response rating, Morningglory (morningglory; 31 g ai/ha): 15; Plant response rating, Soybean (soybean; 31 g ai/ha): 35; Galium plant response rating (galium; [5]): 100; Plant response rating, Galium (galium; 31 g ai/ha): 98; Plant response rating, Barnyardgrass (barnyardgrass [2]; [7]): 40; Plant response rating, Barnyardgrass (barnyardgrass [2]; [8]): 90; Waterhemp plant response rating (waterhemp; [5]): 100; Plant response rating, Waterhemp (waterhemp; 31 g ai/ha): 98
FCc1cccc(Oc2ncc(F)cn2)c1-n1cc(C(F)(F)F)cn1 [Compound 118]	98	100	100	20	100	100	80	100	–	40	100	100	60	90	95	95	100	50	85	100	Plant response rating, Oilseed Rape (oilseed rape; 31 g ai/ha): 100; Foxtail, Giant plant response rating (0 to 100 scale) (giant foxtail; 31 g ai/ha): 80; Plant response rating, Pigweed (pigweed; [9]): 70; Plant response rating, Morningglory (morningglory; 31 g ai/ha): 75; Plant response rating, Soybean (soybean; 31 g ai/ha): 75; Galium plant response rating (galium; [5]): 100; Plant response rating, Galium (galium; 31 g ai/ha): 95; Plant response rating, Barnyardgrass (barnyardgrass [2]; [9]): 30; Plant response rating, Barnyardgrass (barnyardgrass [2]; [7]): 80; Waterhemp plant response rating (waterhemp; [5]): 100; Plant response rating, Waterhemp (waterhemp; 31 g ai/ha): 100
COc1cnn(-c2c(C#N)cccc2Oc2ncc(Cl)cn2)c1 [Compound 137]	50	85	95	0	10	40	5	90	100	25	45	90	10	80	85	5	95	0	100	100	Foxtail, Giant plant response rating (giant foxtail; [10]): 100; Pigweed plant response rating (pigweed; [7]): 70; Galium plant response rating (galium; [5]): 10; Plant response rating, Galium (galium; 31 g ai/ha): 5; Barnyardgrass plant response rating (barnyardgrass [2]; [7]): 0; Plant response rating, Barnyardgrass (barnyardgrass [2]; [8]): 100; Waterhemp plant response rating (waterhemp; [5]): 95
Fc1cccc(Oc2ncc(Cl)cn2)c1-n1cc(I)cn1 [Compound 179]	60	98	100	5	90	100	10	100	100	10	35	90	0	45	65	90	100	20	90	100	Foxtail, Giant plant response rating (giant foxtail; [10]): 100; Pigweed plant response rating (pigweed; [7]): 100; Galium plant response rating (galium; [5]): 98; Plant response rating, Galium (galium; 31 g ai/ha): 95; Barnyardgrass plant response rating (barnyardgrass [2]; [7]): 80; Plant response rating, Barnyardgrass (barnyardgrass [2]; [8]): 100; Waterhemp plant response rating (waterhemp; [5]): 98
CCOc1cnn(-c2ccccc2Oc2ncc(Cl)cn2)c1 [Compound 187]	70	–	90	5	–	90	–	–	100	0	–	5	5	–	85	30	98	0	25	95	Plant response rating, Oilseed Rape (oilseed rape; 62 g ai/ha): 90; Plant response rating, Barnyardgrass (barnyardgrass [1]; 62 g ai/ha): 65; Foxtail, Giant plant response rating (0 to 100 scale) (giant foxtail; 125 g ai/ha): 100; Foxtail, Giant plant response rating (giant foxtail; [10]): 100; Pigweed plant response rating (pigweed; [7]): 70; Plant response rating, Morningglory (morningglory; 62 g ai/ha): 0; Plant response rating, Soybean (soybean; 62 g ai/ha): 55; Plant response rating, Galium (galium; 62 g ai/ha): 90; Barnyardgrass plant response rating (barnyardgrass [2]; [7]): 80; Plant response rating, Barnyardgrass (barnyardgrass [2]; [8]): 90; Plant response rating, Waterhemp (waterhemp; 62 g ai/ha): 85
FCc1cccc(Oc2ncc(Cl)cn2)c1-n1cc(Cl)cn1 [Compound 250]	100	–	100	5	–	100	–	–	–	0	–	50	–	–	90	0	98	0	85	100	Plant response rating, Oilseed Rape (oilseed rape; 62 g ai/ha): 100; Plant response rating, Barnyardgrass (barnyardgrass [1]; 62 g ai/ha): 50; Plant response rating, Foxtail, Giant (giant foxtail; 31 g ai/ha, 0 to 100 scale where 0 is no effect and 100 is complete control, visual, approximately 10 days): 30; Foxtail, Giant plant response rating (0 to 100 scale) (giant foxtail; 125 g ai/ha): 100; Plant response rating, Pigweed (pigweed; [9]): 60; Plant response rating, Pigweed (pigweed; [11]): 90; Plant response rating, Morningglory (morningglory; 62 g ai/ha): 50; Plant response rating, Soybean (soybean; 62 g ai/ha): 65; Plant response rating, Galium (galium; 62 g ai/ha): 70; Plant response rating, Barnyardgrass (barnyardgrass [2]; [9]): 10; Plant response rating, Barnyardgrass (barnyardgrass [2]; [11]): 60; Plant response rating, Waterhemp (waterhemp; 62 g ai/ha): 100
